ChEMBL document CHEMBL4507319 (2021)
Calls of active or inactive are those of the source. The rule behind the calls is not given here.

Tests used:
[1] = biological target: Activated CDC42 kinase 1 (Homo sapiens) (UniProt Q07912); details: Compound concentration 1000.0 nM
[2] = biological target: T1, Mitogen-activated protein kinase kinase kinase 5 (Homo sapiens) (UniProt Q99683); details: Compound concentration 1000.0 nM
T1 sequence (whole entry): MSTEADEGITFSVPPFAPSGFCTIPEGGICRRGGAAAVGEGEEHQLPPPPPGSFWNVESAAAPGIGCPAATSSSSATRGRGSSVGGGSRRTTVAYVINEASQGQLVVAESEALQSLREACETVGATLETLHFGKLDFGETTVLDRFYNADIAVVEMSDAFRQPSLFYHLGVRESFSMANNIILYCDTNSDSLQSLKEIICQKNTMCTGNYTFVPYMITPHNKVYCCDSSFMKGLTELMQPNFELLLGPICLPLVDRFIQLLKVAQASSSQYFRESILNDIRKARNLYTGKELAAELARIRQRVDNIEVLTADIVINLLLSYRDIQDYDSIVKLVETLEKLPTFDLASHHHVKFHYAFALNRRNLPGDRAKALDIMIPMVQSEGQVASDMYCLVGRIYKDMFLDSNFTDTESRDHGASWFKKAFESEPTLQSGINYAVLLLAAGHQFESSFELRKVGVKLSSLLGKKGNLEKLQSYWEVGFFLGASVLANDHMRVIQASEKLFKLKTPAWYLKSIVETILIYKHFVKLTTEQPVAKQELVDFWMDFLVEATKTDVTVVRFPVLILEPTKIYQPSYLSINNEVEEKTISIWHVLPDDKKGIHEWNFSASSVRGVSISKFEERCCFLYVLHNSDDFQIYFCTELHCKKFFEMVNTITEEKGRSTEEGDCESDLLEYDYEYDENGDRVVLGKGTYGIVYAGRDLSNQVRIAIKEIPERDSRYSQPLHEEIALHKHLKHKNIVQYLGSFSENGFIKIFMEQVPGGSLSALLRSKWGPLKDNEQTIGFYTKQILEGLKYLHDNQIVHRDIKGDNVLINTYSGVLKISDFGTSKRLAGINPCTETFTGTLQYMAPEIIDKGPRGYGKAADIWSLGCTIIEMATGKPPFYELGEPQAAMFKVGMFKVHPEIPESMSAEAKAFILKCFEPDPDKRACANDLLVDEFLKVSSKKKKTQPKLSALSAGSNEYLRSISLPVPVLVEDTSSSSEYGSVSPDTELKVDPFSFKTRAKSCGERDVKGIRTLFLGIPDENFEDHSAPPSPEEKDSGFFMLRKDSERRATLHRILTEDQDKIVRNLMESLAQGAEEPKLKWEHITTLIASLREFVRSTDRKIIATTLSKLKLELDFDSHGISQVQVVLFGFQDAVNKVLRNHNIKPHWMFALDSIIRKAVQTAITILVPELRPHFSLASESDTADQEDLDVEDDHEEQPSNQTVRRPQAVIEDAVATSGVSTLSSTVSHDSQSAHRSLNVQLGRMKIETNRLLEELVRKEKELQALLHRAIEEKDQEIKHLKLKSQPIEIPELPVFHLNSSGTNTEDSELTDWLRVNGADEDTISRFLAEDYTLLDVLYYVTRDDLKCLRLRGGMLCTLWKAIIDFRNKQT

[3] = biological target: Mitogen-activated protein kinase kinase kinase 15 (Homo sapiens) (UniProt Q6ZN16); details: Compound concentration 1000.0 nM
Chain of Mitogen-activated protein kinase kinase kinase 15 (Homo sapiens) (Q6ZN16 whole entry): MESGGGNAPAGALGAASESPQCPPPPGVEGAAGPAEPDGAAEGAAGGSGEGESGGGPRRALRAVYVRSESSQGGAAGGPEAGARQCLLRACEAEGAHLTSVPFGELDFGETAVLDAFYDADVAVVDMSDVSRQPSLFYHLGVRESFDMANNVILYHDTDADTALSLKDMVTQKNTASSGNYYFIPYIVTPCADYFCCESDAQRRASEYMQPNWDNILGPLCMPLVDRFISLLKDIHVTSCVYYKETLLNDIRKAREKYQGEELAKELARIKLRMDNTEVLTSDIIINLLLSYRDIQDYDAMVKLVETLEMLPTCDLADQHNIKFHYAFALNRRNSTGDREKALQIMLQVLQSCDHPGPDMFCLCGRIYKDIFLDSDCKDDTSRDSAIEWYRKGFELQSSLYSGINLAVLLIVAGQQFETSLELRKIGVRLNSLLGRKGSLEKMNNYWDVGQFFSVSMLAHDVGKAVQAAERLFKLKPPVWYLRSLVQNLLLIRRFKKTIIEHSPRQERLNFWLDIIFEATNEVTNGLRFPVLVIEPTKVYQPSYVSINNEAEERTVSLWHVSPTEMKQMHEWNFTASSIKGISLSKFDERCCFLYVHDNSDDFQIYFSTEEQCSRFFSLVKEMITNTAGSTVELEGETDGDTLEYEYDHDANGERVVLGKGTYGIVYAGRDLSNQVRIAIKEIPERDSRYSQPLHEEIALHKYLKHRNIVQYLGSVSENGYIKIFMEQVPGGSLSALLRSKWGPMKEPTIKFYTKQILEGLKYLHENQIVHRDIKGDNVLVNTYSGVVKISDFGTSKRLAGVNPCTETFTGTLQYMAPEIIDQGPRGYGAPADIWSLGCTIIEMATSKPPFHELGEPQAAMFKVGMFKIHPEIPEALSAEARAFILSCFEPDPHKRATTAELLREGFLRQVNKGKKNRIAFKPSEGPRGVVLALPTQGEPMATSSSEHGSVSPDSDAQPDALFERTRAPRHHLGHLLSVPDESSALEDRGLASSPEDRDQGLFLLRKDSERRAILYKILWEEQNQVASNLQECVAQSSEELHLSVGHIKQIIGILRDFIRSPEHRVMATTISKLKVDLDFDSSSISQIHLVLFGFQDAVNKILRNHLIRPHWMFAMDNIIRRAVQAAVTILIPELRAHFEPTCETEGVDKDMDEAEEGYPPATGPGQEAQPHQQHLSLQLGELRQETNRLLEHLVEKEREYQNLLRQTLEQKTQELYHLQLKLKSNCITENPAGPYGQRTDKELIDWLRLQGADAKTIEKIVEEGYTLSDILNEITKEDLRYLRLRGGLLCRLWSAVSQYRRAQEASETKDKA

[4] = biological target: Cyclin-dependent kinase-like 3 (Homo sapiens) (UniProt Q8IVW4); details: Compound concentration 1000.0 nM
Chain of Cyclin-dependent kinase-like 3 (Homo sapiens) (Q8IVW4 whole entry, looked up): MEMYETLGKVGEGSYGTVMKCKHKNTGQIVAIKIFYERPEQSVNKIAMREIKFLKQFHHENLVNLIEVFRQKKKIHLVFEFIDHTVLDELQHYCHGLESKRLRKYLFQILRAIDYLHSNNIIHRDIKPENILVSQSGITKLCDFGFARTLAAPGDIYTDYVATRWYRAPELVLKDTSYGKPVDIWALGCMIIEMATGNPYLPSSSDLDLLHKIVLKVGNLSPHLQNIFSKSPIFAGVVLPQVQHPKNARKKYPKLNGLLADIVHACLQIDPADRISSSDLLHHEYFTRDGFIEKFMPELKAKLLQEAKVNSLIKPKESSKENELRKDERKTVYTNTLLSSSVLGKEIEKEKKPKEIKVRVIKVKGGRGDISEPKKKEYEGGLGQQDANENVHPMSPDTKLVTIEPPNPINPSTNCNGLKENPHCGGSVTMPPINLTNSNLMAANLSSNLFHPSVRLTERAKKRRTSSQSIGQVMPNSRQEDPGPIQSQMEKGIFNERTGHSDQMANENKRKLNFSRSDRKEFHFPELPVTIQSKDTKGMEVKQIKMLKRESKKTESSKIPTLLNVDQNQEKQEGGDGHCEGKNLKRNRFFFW

[5] = biological target: T2, Serine/threonine-protein kinase Nek3 (Homo sapiens) (UniProt P51956); details: Compound concentration 1000.0 nM
T2 sequence (whole entry): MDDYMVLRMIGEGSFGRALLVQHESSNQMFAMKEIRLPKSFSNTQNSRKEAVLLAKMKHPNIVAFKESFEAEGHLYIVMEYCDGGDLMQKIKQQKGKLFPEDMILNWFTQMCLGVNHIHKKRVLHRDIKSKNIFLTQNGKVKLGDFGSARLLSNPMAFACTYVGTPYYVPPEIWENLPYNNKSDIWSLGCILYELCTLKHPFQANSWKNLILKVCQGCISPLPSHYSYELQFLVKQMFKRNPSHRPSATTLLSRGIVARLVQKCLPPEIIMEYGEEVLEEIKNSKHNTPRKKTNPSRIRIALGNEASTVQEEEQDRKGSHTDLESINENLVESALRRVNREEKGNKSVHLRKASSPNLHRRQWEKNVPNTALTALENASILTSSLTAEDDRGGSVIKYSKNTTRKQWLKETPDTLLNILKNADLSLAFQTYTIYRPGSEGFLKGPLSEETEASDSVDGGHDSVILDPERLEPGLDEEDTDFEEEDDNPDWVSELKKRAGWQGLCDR

[6] = biological target: Serine/threonine-protein kinase WNK2 (Homo sapiens) (UniProt Q9Y3S1); details: Compound concentration 1000.0 nM
[7] = biological target: cAMP-dependent protein kinase catalytic subunit alpha (Homo sapiens) (UniProt P17612); details: Compound concentration 1000.0 nM
[8] = biological target: Cyclin-G-associated kinase (Homo sapiens) (UniProt O14976); details: Compound concentration 1000.0 nM
Chain of Cyclin-G-associated kinase (Homo sapiens) (O14976 whole entry): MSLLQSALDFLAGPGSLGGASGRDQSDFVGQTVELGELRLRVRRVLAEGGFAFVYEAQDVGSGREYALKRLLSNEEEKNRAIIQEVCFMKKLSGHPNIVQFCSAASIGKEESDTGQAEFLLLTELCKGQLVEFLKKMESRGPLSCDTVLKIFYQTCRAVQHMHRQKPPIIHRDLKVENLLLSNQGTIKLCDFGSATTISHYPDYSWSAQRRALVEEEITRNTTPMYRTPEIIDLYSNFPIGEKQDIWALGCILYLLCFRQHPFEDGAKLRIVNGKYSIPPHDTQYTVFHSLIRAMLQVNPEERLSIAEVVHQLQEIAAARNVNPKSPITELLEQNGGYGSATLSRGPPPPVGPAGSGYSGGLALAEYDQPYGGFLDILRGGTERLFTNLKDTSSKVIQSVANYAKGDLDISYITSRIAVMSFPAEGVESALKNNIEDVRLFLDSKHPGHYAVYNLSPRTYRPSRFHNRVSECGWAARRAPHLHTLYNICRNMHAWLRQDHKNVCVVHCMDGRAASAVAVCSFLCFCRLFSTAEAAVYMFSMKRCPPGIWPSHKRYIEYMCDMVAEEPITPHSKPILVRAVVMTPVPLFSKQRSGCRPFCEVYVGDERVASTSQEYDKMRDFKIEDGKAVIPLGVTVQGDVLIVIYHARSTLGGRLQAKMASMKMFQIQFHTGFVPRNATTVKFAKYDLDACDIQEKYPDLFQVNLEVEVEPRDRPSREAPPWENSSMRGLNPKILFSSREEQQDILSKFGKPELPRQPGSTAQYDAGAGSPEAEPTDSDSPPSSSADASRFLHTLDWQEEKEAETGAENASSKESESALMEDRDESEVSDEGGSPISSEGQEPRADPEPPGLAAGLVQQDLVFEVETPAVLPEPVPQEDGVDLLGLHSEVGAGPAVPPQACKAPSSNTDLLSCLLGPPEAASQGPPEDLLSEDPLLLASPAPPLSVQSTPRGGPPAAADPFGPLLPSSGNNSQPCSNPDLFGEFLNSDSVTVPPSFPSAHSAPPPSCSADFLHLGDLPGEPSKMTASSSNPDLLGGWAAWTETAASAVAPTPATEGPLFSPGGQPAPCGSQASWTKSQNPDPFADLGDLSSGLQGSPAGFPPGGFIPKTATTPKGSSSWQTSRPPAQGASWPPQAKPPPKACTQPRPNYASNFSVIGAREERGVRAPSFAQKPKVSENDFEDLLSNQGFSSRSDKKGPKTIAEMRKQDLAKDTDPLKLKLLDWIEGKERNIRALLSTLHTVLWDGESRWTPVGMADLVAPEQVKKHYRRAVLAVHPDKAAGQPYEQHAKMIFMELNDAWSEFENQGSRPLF

[9] = biological target: T3, Activin receptor type-1B (Homo sapiens) (UniProt P36896); details: Compound concentration 1000.0 nM
T3 sequence (whole entry): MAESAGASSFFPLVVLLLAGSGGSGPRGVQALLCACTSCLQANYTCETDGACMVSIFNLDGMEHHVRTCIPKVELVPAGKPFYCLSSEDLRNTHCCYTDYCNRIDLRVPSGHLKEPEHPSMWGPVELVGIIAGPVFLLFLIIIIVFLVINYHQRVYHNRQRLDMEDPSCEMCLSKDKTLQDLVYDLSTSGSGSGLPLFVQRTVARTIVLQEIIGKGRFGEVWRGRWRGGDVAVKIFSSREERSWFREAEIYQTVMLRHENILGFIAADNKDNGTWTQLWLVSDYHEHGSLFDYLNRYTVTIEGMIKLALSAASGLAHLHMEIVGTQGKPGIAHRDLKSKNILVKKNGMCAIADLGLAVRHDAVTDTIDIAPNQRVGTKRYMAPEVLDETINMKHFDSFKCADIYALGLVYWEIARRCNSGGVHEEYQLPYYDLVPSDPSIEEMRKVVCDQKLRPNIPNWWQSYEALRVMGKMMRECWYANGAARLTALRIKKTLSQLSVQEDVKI

[10] = biological target: Mitogen-activated protein kinase kinase kinase 1 (Homo sapiens) (UniProt Q13233); details: Compound concentration 1000.0 nM
Chain of Mitogen-activated protein kinase kinase kinase 1 (Homo sapiens) (Q13233 whole entry): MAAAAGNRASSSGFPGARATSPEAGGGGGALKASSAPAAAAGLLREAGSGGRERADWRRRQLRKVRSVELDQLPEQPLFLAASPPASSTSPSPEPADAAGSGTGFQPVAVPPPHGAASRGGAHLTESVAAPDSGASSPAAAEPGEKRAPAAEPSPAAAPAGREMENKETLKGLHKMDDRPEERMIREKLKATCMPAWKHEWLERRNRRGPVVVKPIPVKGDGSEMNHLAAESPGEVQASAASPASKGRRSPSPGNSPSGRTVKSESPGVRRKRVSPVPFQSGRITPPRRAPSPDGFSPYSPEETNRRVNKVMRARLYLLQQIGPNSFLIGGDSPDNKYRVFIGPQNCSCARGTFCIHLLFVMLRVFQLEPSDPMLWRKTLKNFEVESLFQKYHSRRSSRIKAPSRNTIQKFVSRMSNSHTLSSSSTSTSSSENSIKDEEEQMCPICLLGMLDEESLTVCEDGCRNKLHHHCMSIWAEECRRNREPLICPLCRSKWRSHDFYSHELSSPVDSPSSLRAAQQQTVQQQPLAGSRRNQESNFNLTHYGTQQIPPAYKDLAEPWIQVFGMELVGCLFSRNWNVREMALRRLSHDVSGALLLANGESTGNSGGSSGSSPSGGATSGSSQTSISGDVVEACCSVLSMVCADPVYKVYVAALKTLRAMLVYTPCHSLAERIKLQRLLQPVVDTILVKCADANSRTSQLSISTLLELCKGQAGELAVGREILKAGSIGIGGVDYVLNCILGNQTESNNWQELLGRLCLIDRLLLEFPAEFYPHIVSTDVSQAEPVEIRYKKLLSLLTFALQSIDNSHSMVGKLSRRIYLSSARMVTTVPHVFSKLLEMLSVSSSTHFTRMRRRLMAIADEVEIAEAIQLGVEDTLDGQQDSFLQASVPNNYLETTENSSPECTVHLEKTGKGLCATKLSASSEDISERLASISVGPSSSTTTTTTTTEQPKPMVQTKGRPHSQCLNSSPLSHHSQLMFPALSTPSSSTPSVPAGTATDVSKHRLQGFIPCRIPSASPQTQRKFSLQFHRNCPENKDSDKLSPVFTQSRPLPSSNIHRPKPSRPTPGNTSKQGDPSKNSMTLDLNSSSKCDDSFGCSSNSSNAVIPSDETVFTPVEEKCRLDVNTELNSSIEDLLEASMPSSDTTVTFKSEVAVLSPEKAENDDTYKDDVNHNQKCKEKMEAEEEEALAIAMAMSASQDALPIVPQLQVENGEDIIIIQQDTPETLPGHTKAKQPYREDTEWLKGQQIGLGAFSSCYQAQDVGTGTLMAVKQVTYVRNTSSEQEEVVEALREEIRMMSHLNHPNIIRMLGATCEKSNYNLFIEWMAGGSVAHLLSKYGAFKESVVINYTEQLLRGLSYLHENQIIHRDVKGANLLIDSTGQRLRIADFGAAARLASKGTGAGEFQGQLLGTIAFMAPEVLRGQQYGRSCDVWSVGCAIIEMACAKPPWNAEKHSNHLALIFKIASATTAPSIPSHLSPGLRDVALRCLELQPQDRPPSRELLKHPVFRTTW

[11] = biological target: 5'-AMP-activated protein kinase catalytic subunit alpha-1 (Homo sapiens, UniProt Q13131); test: Biochemical PRKAA1 assay with 10 µM ATP (Bayer in house)
[12] = biological target: 1-phosphatidylinositol 3-phosphate 5-kinase (Homo sapiens) (UniProt Q9Y2I7); details: Compound concentration 1000.0 nM
[13] = system: Epidermal growth factor receptor (Homo sapiens), P00533 [UNDEFINED MUTATION]; details: Compound concentration 1000.0 nM

Structure (SMILES) | residual activity [1] [%] | residual activity [2] [%] | residual activity [3] [%] | residual activity [4] [%] | residual activity [5] [%] | residual activity [6] [%] | residual activity [7] [%] | residual activity [8] [%] | residual activity [9] [%] | residual activity [10] [%] | IC50 [11] | residual activity [12] [%] | residual activity [13] [%]
CCc1ccccc1C(=O)Nc1n[nH]c2c(C)c(F)c(C3C(C#N)=C(C)N(C)C(C)=C3C#N)cc12 [BAY-3827] | 81 | 100 | 96 | 87 | 100 | 100 | 89 | 82 | 100 | 100 | 0.0014 µM (active) | 100 | 29
CC1=C(C#N)C(c2ccc3c(c2)c(NC(=O)c2ccccc2C)nn3C)C(C#N)=C(C)N1 [BAY-974] | 86 | 89 | 96 | 79 | 94 | 75 | 77 | 100 | 80 | 51 | > 20 µM (not active) | 87 | 78
